For data set [1], the system named is Phytophthora infestans. The experiment in a line: whole plant or invertebrate. Particulars: in Solanum lycopersicum, foliar, read-out: inhibit fungal infestation. It counts as in vivo.
The subject of data set [2] is Blumeria graminis f. Sp. tritici (Erysiphe graminis f. Sp. tritici). The experiment in a line: Blumeria graminis f. Sp. tritici (Erysiphe graminis f. Sp. tritici)/Wheat/Leaf Disc Preventative (Powdery Mildew on Wheat). Format: in vivo. The settings on record: foliar, read-out: inhibit fungal infestation.
Data set [3] deals with Pythium ultimum. The experiment in a line: Pythium ultimum/Liquid Culture (Seedling Damping Off). It counts as cell-based. Particulars: Globisporangium ultimum, read-out: inhibit fungal infestation.
Data set [4] relates to Plasmopara viticola. In words: whole plant or invertebrate. The settings on record: foliar, read-out: inhibit fungal infestation. It counts as in vivo.
The subject of data set [5] is Phaeosphaeria nodorum (Septoria nodorum). The experiment in a line: Phaeosphaeria nodorum (Septoria nodorum)/Wheat/Leaf Disc Preventative (Glume Blotch). It counts as in vivo. Particulars: Parastagonospora nodorum, foliar, read-out: inhibit fungal infestation.
Where [6] appears, read: 200 ppm, wheat leaf segments cv. Kanzler, preventative, 6-8 days after application, untreated control infected to over 80%.
Where [7] appears, read: 200 ppm, liquid culture (PDB), 24° C., growth inhibition photometrically 2-3 days after application.
Setting [8] is: 200 ppm, wheat leaf segments cv. Kanzler, preventative, 5-7 days after application, untreated control infected to over 80%.

Consider 21 molecules from patent US20130065922A1, “NOVEL AMIDES AS FUNGICIDES” (priority 2010, published 2013).

Like-named read-outs stand apart in the source and are kept apart here. Bounds are passed on as bounds.

Broadly, the melting point is the temperature, or range, at which the solid turns liquid.

For `COc1cnc2ccc(OC(SC)C(=O)NC(C)(C)C)cc2c1` (stereo not shown) [Compound 2, N-tert-Butyl-2-(3-methoxy-quinolin-6-yloxy)-2-methylsulfanyl-acetamide], the melting point was 110 to 115 °C. In addition, in data set [1], the inhibition at 200 ppm was at least 80%. For the same molecule, the inhibition at 200 ppm in data set [2] (setting [6]) is at least 80%. In data set [3] (setting [7]), the inhibition at 200 ppm was at least 80%.
Regarding `COCC#CC(C)(C)NC(=O)C(Oc1ccc2ncc(OC)cc2c1)SC` (stereo not shown) [Compound 4, N-(4-Methoxy-1,1-dimethyl-but-2-ynyl)-2-(3-methoxy-quinolin-6-yloxy)-2-methylsulfanyl-acetamide], the melting point is 95 to 98 °C. Moreover, the inhibition at 200 ppm in data set [4] is at least 80%. Moreover, the inhibition at 200 ppm in data set [1] is at least 80%. Moreover, the inhibition at 200 ppm in data set [2] is at least 80%. Besides, in data set [3], the inhibition at 200 ppm was at least 80%.
`C#CC(C)(COC)NC(=O)C(Oc1ccc2ncc(OC)cc2c1)SC` (stereo not shown) [Compound 5, N-(1-Methoxymethyl-1-methyl-prop-2-ynyl)-2-(3-methoxy-quinolin-6-yloxy)-2-methylsulfanyl-acetamide]: the melting point was in the range of 112 to 118 °C. In addition, the inhibition at 200 ppm in data set [4] is at least 80%. In addition, the inhibition at 200 ppm in data set [1] was at least 80%. For the same molecule, the inhibition at 200 ppm in data set [5] (setting [8]) is at least 80%. Moreover, the inhibition at 200 ppm in data set [2] (setting [6]) is at least 80%. In data set [3] (setting [7]), the inhibition at 200 ppm is at least 80%.
Molecule `C#CC(C)(C)NC(=O)C(CC)Oc1ccc2ncc(OC)cc2c1` (stereo not shown) [Compound 7, N-(1,1-Dimethyl-prop-2-ynyl)-2-(3-methoxy-quinolin-6-yloxy)-butyramide] had a melting point of 109 to 112 °C. For the same molecule, the inhibition at 200 ppm in data set [1] is at least 80%. Further, the inhibition at 200 ppm in data set [2] (setting [6]) was at least 80%. Moreover, the inhibition at 200 ppm in data set [3] (setting [7]) was at least 80%.
With `CO/N=C/C(C)(C)NC(=O)C(OC)Oc1ccc2ncc(OC)cc2c1` (stereo not shown) [Compound 8, 2-Methoxy-N-(2-methoxyimino-1,1-dimethyl-ethyl)-2-(3-methoxy-quinolin-6-yloxy)-acetamide], the melting point was 100 to 106 °C. In addition, the inhibition at 200 ppm in data set [1] was at least 80%. Further, the inhibition at 200 ppm in data set [2] (setting [6]) is at least 80%. Moreover, in data set [3] (setting [7]), the inhibition at 200 ppm is at least 80%.
`C#CC(C)(C)NC(=O)C(Oc1ccc2ncc(OC)cc2c1)SC` (stereo not shown) [Compound 10, N-(1,1-Dimethyl-prop-2-ynyl)-2-(3-methoxy-quinolin-6-yloxy)-2-methylsulfanyl-acetamide] had a melting point of 152 to 154 °C. The inhibition at 200 ppm in data set [4] is at least 80%. In addition, the inhibition at 200 ppm in data set [1] is at least 80%. In addition, the inhibition at 200 ppm in data set [5] (setting [8]) is at least 80%. Further, the inhibition at 200 ppm in data set [2] (setting [6]) was at least 80%. In addition, the inhibition at 200 ppm in data set [3] (setting [7]) was at least 80%.
With `CC#CC(C)(C)NC(=O)C(Oc1ccc2ncc(OC)cc2c1)SC` (stereo not shown) [Compound 11, N-(1,1-Dimethyl-but-2-ynyl)-2-(3-methoxy-quinolin-6-yloxy)-2-methylsulfanyl-acetamide], the melting point is 137 to 139 °C. In data set [4], the inhibition at 200 ppm was at least 80%. Also, in data set [1], the inhibition at 200 ppm is at least 80%. Moreover, the inhibition at 200 ppm in data set [5] is at least 80%. In addition, the inhibition at 200 ppm in data set [2] was at least 80%. In addition, the inhibition at 200 ppm in data set [3] was at least 80%.
In the case of `COc1cnc2c(C)cc(OC(SC)C(=O)NC(C)(C)C)cc2c1` (stereo not shown) [Compound 16, N-tert-Butyl-2-(3-methoxy-8-methyl-quinolin-6-yloxy)-2-methylsulfanyl-acetamide], the melting point fell in the range of 147 to 150 °C. Moreover, the inhibition at 200 ppm in data set [1] was at least 80%. Besides, the inhibition at 200 ppm in data set [5] (setting [8]) was at least 80%. The inhibition at 200 ppm in data set [2] (setting [6]) is at least 80%. The inhibition at 200 ppm in data set [3] (setting [7]) was at least 80%.
With `COCC(C)(C#N)NC(=O)C(Oc1cc(C)c2ncc(OC)cc2c1)SC` (stereo not shown) [Compound 18, N-(1-Cyano-2-methoxy-1-methyl-ethyl)-2-(3-methoxy-8-methyl-quinolin-6-yloxy)-2-methylsulfanyl-acetamide], the melting point lay in the range of 123 to 129 °C. Moreover, the inhibition at 200 ppm in data set [4] was at least 80%. Also, the inhibition at 200 ppm in data set [1] is at least 80%. Also, in data set [2] (setting [6]), the inhibition at 200 ppm is at least 80%. For the same molecule, the inhibition at 200 ppm in data set [3] (setting [7]) is at least 80%.
As to `C#CC(C)(C#C)NC(=O)C(Oc1cc(C)c2ncc(OCC)cc2c1)SC` (stereo not shown) [Compound 23, 2-(3-Ethoxy-8-methyl-quinolin-6-yloxy)-N-(1-ethynyl-1-methyl-prop-2-ynyl)-2-methylsulfanyl-acetamide], the melting point was 143 to 145 °C. The inhibition at 200 ppm in data set [4] is at least 80%. Besides, in data set [5] (setting [8]), the inhibition at 200 ppm is at least 80%. Also, in data set [2] (setting [6]), the inhibition at 200 ppm is at least 80%. Moreover, the inhibition at 200 ppm in data set [3] (setting [7]) was at least 80%.
In turn, `C#CC(C)(C)NC(=O)C(Oc1cc(C)c2ncc(OCC)cc2c1)SC` (stereo not shown) [Compound 25, N-(1,1-Dimethyl-prop-2-ynyl)-2-(3-ethoxy-8-methyl-quinolin-6-yloxy)-2-methylsulfanyl-acetamide] had a melting point of 160 to 162 °C. For the same molecule, the inhibition at 200 ppm in data set [4] is at least 80%. Moreover, the inhibition at 200 ppm in data set [5] (setting [8]) is at least 80%. Moreover, the inhibition at 200 ppm in data set [2] (setting [6]) is at least 80%. Besides, the inhibition at 200 ppm in data set [3] (setting [7]) was at least 80%.
As for `CCOc1cnc2ccc(OC(SC)C(=O)NC(C)(C)C)cc2c1` (stereo not shown) [Compound 26, N-tert-Butyl-2-(3-ethoxy-quinolin-6-yloxy)-2-methylsulfanyl-acetamide], the melting point was in the range of 120 to 123 °C. Moreover, the inhibition at 200 ppm in data set [5] (setting [8]) is at least 80%. Also, the inhibition at 200 ppm in data set [2] (setting [6]) was at least 80%. In addition, in data set [3] (setting [7]), the inhibition at 200 ppm is at least 80%.
In the case of `C#CC(C)(C)NC(=O)C(CC)Oc1ccc2ncc(SC)cc2c1` (stereo not shown) [Compound 29, N-(1,1-Dimethyl-prop-2-ynyl)-2-(3-methylsulfanyl-quinolin-6-yloxy)-butyramide], the melting point was 121 to 123 °C. Moreover, the inhibition at 200 ppm in data set [4] was at least 80%. Besides, the inhibition at 200 ppm in data set [1] was at least 80%. In data set [2] (setting [6]), the inhibition at 200 ppm was at least 80%. For the same molecule, the inhibition at 200 ppm in data set [3] (setting [7]) was at least 80%.
The molecule `CCC(Oc1ccc2ncc(SC)cc2c1)C(=O)NC(C)(C)C` (stereo not shown) [Compound 30, N-tert-Butyl-2-(3-methylsulfanyl-quinolin-6-yloxy)-butyramide] showed a melting point of 113 to 115 °C. Further, the inhibition at 200 ppm in data set [4] is at least 80%. The inhibition at 200 ppm in data set [1] was at least 80%. In addition, the inhibition at 200 ppm in data set [2] (setting [6]) is at least 80%. Moreover, the inhibition at 200 ppm in data set [3] (setting [7]) is at least 80%.
Take `C#CC(C)(C)NC(=O)C(Oc1cc(Cl)c2ncc(SC)cc2c1)SC` (stereo not shown) [Compound 32, 2-(8-Chloro-3-methylsulfanyl-quinolin-6-yloxy)-N-(1,1-dimethyl-prop-2-ynyl)-2-methylsulfanyl-acetamide]: the melting point was in the range of 157 to 159 °C. Moreover, the inhibition at 200 ppm in data set [4] was at least 80%. Moreover, the inhibition at 200 ppm in data set [1] was at least 80%. For the same molecule, the inhibition at 200 ppm in data set [3] (setting [7]) was at least 80%.
`CC#CC(C)(C)NC(=O)C(Oc1cc(Cl)c2ncc(SC)cc2c1)SC` (stereo not shown) [Compound 33, 2-(8-Chloro-3-methylsulfanyl-quinolin-6-yloxy)-N-(1,1-dimethyl-but-2-ynyl)-2-methylsulfanyl-acetamide] had a melting point of 153 to 155 °C. Besides, the inhibition at 200 ppm in data set [4] was at least 80%. Besides, the inhibition at 200 ppm in data set [1] was at least 80%. The inhibition at 200 ppm in data set [3] is at least 80%.
`C#CC(C)(C)NC(=O)C(CC)Oc1cc(C)c2ncc(SC)cc2c1` (stereo not shown) [Compound 37, N-(1,1-Dimethyl-prop-2-ynyl)-2-(8-methyl-3-methylsulfanyl-quinolin-6-yloxy)-butyramide]: the melting point was in the range of 134 to 136 °C. The inhibition at 200 ppm in data set [4] was at least 80%. Also, in data set [5] (setting [8]), the inhibition at 200 ppm was at least 80%. The inhibition at 200 ppm in data set [3] (setting [7]) is at least 80%.
`C#CC(C)(C=C)NC(=O)C(Oc1ccc2ncc(SC)cc2c1)SC` (stereo not shown) [Compound 63, N-(1-Ethynyl-1-methyl-allyl)-2-methylsulfanyl-2-(3-methylsulfanyl-quinolin-6-yloxy)-acetamide]: the melting point was in the range of 121 to 123 °C. Further, the inhibition at 200 ppm in data set [4] is at least 80%. The inhibition at 200 ppm in data set [1] was at least 80%. Also, the inhibition at 200 ppm in data set [3] (setting [7]) is at least 80%.
`CCSc1cnc2ccc(OC(SC)C(=O)NC(C)(C)/C=N/OC)cc2c1` (stereo not shown) [Compound 64, 2-(3-Ethylsulfanyl-quinolin-6-yloxy)-N-(2-methoxyimino-1,1-dimethyl-ethyl)-2-methylsulfanyl-acetamide]: the melting point lay within 105 to 107 °C. In addition, the inhibition at 200 ppm in data set [4] is at least 80%. Further, in data set [1], the inhibition at 200 ppm was at least 80%. Further, the inhibition at 200 ppm in data set [2] (setting [6]) is at least 80%. Besides, the inhibition at 200 ppm in data set [3] (setting [7]) was at least 80%.
For the molecule `CSc1cnc2ccc(OC(SC)C(=O)NC(C)(C#N)C3CC3)cc2c1` (stereo not shown) [Compound 65, N-(Cyano-cyclopropyl-methyl-methyl)-2-methylsulfanyl-2-(3-methyl-sulfanyl-quinolin-6-yloxy)-acetamide], the inhibition at 200 ppm in data set [4], in data set [1], in data set [5] (setting [8]) and in data set [3] (setting [7]) was at least 80% throughout.
With `CSc1cnc2ccc(OC(SC)C(=O)NC(C)(C)C#N)cc2c1` (stereo not shown) [Compound 68, N-(Cyano-dimethyl-methyl)-2-methylsulfanyl-2-(3-methylsulfanyl-quinolin-6-yloxy)-acetamide], the inhibition at 200 ppm in data set [4], in data set [1] and in data set [3] (setting [7]) was at least 80% throughout.
